# Laboratory results from patent publication US10203331B2, “Single cell drug response measurements via live cell interferometry” (The Regents of the University of California, priority 2011, dated 2019).
# Entries after “also recorded” stand apart in the source; their conditions may differ.
# Assays:
# Assay type in all cases: cell-based, human
# [1] = tested on: H929 multiple myeloma cells; assay: LCI longitudinal single-cell mass accumulation profiling; design: mass accumulation rate (growth) of treated cells versus DMSO-treated controls: dose or concentration left out as unconfirmed; details: for mass accumulation rate (growth) of treated cells versus DMSO-treated controls: Tunicamycin, data over five hours
# Excerpt: The live cell interferometer has been described in detail previously (1). Briefly, the system is an optical microscope, based on a modified Veeco NT9300 optical profiler, with a 20×0.28NA Michelson interference objective that allows for the observation of not only lateral features with typical optical resolution (1.16 μm for the 20× objective) but also height dimensions of reflective objects below the scale of one nanometer. The Michelson interferometer is composed of a beam splitter, reference mirror and compensating fluid cell to adjust for optical path differences induced by fluid surrounding the specimen. The phase shifting interferometry (PSI) (14) method was used to capture phase images of the cell bodies in situ. During measurement, a piezoelectric translator decreases the light path a small amount causing a phase shift between the test and reference beams. The system records the irradiance of the resulting interference pattern at many different phase shifts and then converts the irradiance to phase wavefront data by integrating the irradiance data using a PSI algorithm. As currently implemented, the autofocus and PSI measurement cycle takes 12 seconds. The PSI measurement itself takes 1-2 seconds, and is limited by the camera frame rate (60 fps). In this experiment, one set of 25 images, containing 400-1,000 cells, was captured every 7 minutes. Each set of 25 images contained hundreds of cells, with data from the first five images presented here, and therefore each run includes ˜80 cells. All cells within each of the selected images were measured.
# The software native to the Veeco NT9300 allows automated optical thickness measurements of cells selected manually from the phase image. The optical thickness is converted to mass as described in the text, using the conversion constant, α=1.8×10^−3 m^3 kg^−1, consistent with Ross. (9) The boundary of each cell was automatically selected by an algorithm that partitions objects from the background using a threshold determined from the histogram of pixel heights. (15) Conversion of the raw phase image into optical thickness uses a series of well established ‘phase unwrapping’ routines. […] This error is easily detected as a non-physical discontinuity in optical thickness, and corrected by adding back one wavelength of optical thickness to the affected pixels. […]
# H929 human multiple myeloma cells were maintained at 37° C. in 5% CO2 in RPMI 1640 growth media supplemented with 10% defined fetal bovine serum (HyClone) and antibiotics. […] Cell responses to external stimuli were measured for as long as seven hours in this configuration, and observed unperturbed cultures for up to twelve hours, although the upper limit of experiment duration has not been determined. […]
# CHOP (DDIT3) mRNA = assay: Quantitative RT-PCR for CHOP (DDIT3) mRNA in treated H929 cells; details: treated H929 population, over five hours
# Protocol: (§1) H929 cells were seeded in 6-well culture plates at a density of 1×10^6 cells/well. Before plating cells in the LCI's observation chamber, either 1 μL of Tunicamycin (T7765; Sigma-Aldrich) in DMSO, or DMSO alone were added to the media at a concentration of 10 mg/ml, DMSO/media (1:1000 dilution). Mass measurements commenced one hour after the cells were plated in the observation chamber in order to allow the experimental system to stabilize, i.e.; culture acclimation, temperature stabilization, etc. For cell cycle analysis, cells from each time point were collected and incubated with a hypotonic DNA-staining buffer containing propidium iodide and later analyzed by flow cytometry. RNA for each time point was extracted using the Trizol reagent (Invitrogen).
# (§2) CDNA was synthesized from 3 μg of total RNA with oligo(dT) primers using the Superscript III first strand cDNA synthesis kit (Invitrogen). RT-PCR for XBP1 spliced and unspliced isoforms were performed using Platinum Taq (Invitrogen) at an annealing temperature of 58° C. for 25 cycles. Quantitative RT-PCR for CHOP (DDIT3) mRNA was performed using the SYBR green real time PCR kit (Diagenode) and an Applied Biosystems (Foster City, Calif., USA) 7700 sequence detector as described (33). Samples were analyzed for 36b4 expression as a normalization control. Primer sequences are available on request.
# [2] = tested on: XBP1 mRNA splicing (XBP1-s); assay: RT-PCR for XBP1 spliced and unspliced isoforms in treated H929 cells; details: treated H929 population, over five hours
# Protocol: as §1, §2
# H929 cells = assay: Cell cycle analysis, propidium iodide flow cytometry
# Protocol: as §1
substance,measurement,setting,value
Tunicamycin,time at which suppression of growth of the treated population appears,"[1]; H929, treated vs untreated",within two hours
same,mass accumulation rate (growth) of treated cells versus DMSO-treated controls,[1],grow more slowly than do the controls; also recorded: much lower
same,mass accumulation rate (growth) of treated cells versus DMSO-treated controls,[1]; listed as TM,slowing mass accumulation
same,cell shrinkage or apoptosis,[1]; with induction of XBP1 mRNA splicing,not cell shrinkage or apoptosis
same,CHOP transcription factor expression,CHOP (DDIT3) mRNA,up-regulation
same,XBP1 alternative splicing (spliced form XBP1-s),[2],alternative splicing
same,XBP1 alternative splicing (spliced form XBP1-s),[2]; listed as TM,up-regulation
same,cells in G1/G0,H929 cells; by the end of five hours of treatment,50%
same,G2/M phase population,H929 cells; shift pronounced after three hours of exposure,rapid reduction
